Experimental findings from publication doi:10.1101/2024.12.03.626679, “Structure of the SMYD2-PARP1 Complex Reveals Both Productive and Allosteric Modes of Peptide Binding” (bioRxiv, 2024) are described below.

One assay has as its system histone H3. Briefly: Antibody-based methyltransferase assay on H3. Type of assay: biochemical. The note with it: versus wild-type SMYD2; 30°C overnight, Western blot. The protocol: (§1) An antibody-based methyltransferase assay was carried out similarly to a previously described method ([29]). Reactions were performed by incubating SMYD2 proteins with H3 or H4 in the presence of AdoMet at 30°C overnight in a reaction buffer containing 50 mM Tris pH 8.5, 25 mM NaCl, 5% glycerol, and 2 mM DTT. Lysine methylation was detected by Western blot analysis using antibodies against mono-, di-, and trimethylated lysine (ab23366 & ab76118, Abcam). Enzymatic activities were quantified based on chemiluminescence using a CCD gel imager.

A further assay concerns PARP1(518–1014). Put plainly: Methyltransferase activity of SMYD2 proteins on PARP1(518–1014), MTase-Glo assay. It is filed as biochemical, human. The following applies: versus wild-type SMYD2. The protocol: Steady-state enzyme kinetics was carried out using the MTase-Glo methyltransferase assay according to the manufacturer’s instructions (Promega). […] After incubating the reactions with the MTase-Glo reagent and MTase-Glo Detection Solution, the amount of produced AdoHcy was determined by measuring luminescent signals using a microplate reader. The reactions were quantified using an AdoHcy standard curve that correlates the luminescence intensity to the AdoHcy concentration. Enzyme kinetic constants (KM, kcat, and Hill coefficient) were determined using initial velocity measurements at varying substrate concentrations by fitting them to a standard Michaelis-Menten kinetics model and the Hill equation.

The test system of another assay is histone H4. Briefly: Antibody-based methyltransferase assay on H4. It is filed as biochemical. The following applies: versus wild-type SMYD2; 30°C overnight, Western blot. Here is the method:
as §1

Assay [1] deals with T1, SMYD2-F184A / PARP1(518–1014) interaction (Homo sapiens, UniProt Q9NRG4, F184A).
T1 construct: Full-length human SMYD2 (residues 1–433) (SMYD2-WT); 6xHis-SUMO (N, cleaved yes); made in house
T1 sequence (Q9NRG4 whole entry F184A, the tested form may be a part): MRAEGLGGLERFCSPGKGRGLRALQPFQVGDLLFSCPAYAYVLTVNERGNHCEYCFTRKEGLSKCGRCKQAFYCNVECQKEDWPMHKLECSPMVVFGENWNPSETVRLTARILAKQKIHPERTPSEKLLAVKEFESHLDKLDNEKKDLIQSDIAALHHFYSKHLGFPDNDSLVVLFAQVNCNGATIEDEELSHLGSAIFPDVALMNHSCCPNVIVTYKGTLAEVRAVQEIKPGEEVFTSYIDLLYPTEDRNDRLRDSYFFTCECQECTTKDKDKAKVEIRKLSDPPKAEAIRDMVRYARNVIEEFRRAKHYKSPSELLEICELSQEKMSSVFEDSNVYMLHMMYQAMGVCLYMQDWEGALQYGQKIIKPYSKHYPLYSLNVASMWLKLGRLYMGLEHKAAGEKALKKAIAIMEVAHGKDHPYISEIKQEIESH
Briefly: ELISA inhibition of SMYD2-PARP1(518–1014) interaction by PARP1 peptide, F184A mutant. The following applies: SMYD2 pre-incubated with peptide, four-parameter logistic fit, triplicate, read-out: IC50 of inhibition of F184A mutant binding to coated PARP1 protein. The protocol:
ELISA solid-phase protein binding experiments were performed according to the previously described protocol ([22]). ELISA plates were prepared by coating PARP1, H3, or H4 onto the wells in a coating buffer containing 10 mM HEPES pH 7.5, 0.1 M KCl, and 3 mM MgCl2. After blocking the plates with 1% BSA, binding experiments were performed by adding different concentrations of SMYD2 proteins into the wells. For PARP1 peptide inhibition experiments, SMYD2 proteins were pre-incubated with the PARP1 peptide before being added to the wells. Bound SMYD2 proteins were probed with the anti-SMYD2 antibody (ab108217, Abcam), and the amount of binding was quantified using an HRP-conjugated secondary antibody (ab6721, Abcam) that generated a color signal from oxidizing the substrate 2,2′-azino-bis(3-ethylbenzthiazoline sulfonic acid). The absorbance of signals was measured at 420 nm using a microplate reader at 2-minute intervals for 15 minutes. The rate of change in absorbance obtained by linear regression was used to quantify the binding. IC50 and the concentration required for 50% saturation were obtained by fitting binding data using a four-parameter logistic regression model. For reciprocal binding experiments, SMYD2 proteins were coated onto the wells and bound PARP1 was detected by the anti-PARP1 antibody (ab191217, Abcam). All binding experiments were performed in triplicate.

No end group written: not given here.

“F184A mutant: SMYD2 mutant targeting the target lysine access channel at the active site”: the “methylation of H3” value in the assay with histone H3 is “abolishes the methyltransferase activity”. Further, in the assay on PARP1(518–1014), the “methylation level of PARP1 protein” value is listed as “abolishes the methyltransferase activity”. In the assay on histone H4, the “methylation of H4” value is recorded as “abolishes the methyltransferase activity”.

For “L351A/W356A mutant: SMYD2 secondary-binding-site mutant targeting both subsites M and L”, in the assay on histone H3, the “methylation of H3” value is “marked increase”. Besides, in the assay with PARP1(518–1014), the “methylation level of PARP1 protein” value is reported as “notable increase”. The “methylation of H4” value in the assay on histone H4 is “marked increase”.

On to RMKLTLKGGAAVD [PARP1 peptide], for which, in assay [1], the IC50 is ~153 nM.
